This is an account of results in PubChem BioAssay (NCI).

SMILES strings stand for the structures.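 Cultured in 96-well plates, cells were exposed to test compound for 48 hours across five concentrations. TGI marks complete inhibition of growth.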

One experiment concerns MDA-MB-231 breast. Nature of the experiment: inhibition of tumour cell growth, NCI panel, 48 h.
Consider `CC(C)(C)c1cc(/C=C2/NC(=O)NC2=O)cc(C(C)(C)C)c1O`, for which the TGI is 26.2 µM.
As for `COc1cccc(N2C(=O)CS(=O)(=O)C2c2cccc(Oc3ccccc3)c2)c1` (configuration not stated), the TGI was > 100 µM.
On the same count and under the same terms, as for `O=C(/C=C\Nc1ccccc1O)C(F)(F)F`, the figure is > 100 µM; as for `CC1(C)OC[C@@H](C[C@H](O)COCc2ccccc2)O1`, > 100 µM; as for `NC(N)=NS(=O)(=O)c1ccc(NC(=O)c2cccc3c(NNc4ccc(S(N)(=O)=O)cc4)c4ccccc4nc23)cc1`, > 100 µM.
Take `Nc1nncc2[nH]cnc12`: the TGI is > 100 µM.
On to `CN(C)CCNc1c([N+](=O)[O-])sc2ccc(Cl)cc12`, for which the TGI is > 100 µM.
For `CCOC(=O)Cn1nnc2cc(Nc3c(C)[n+]([O-])c4cc(F)c(OCC)cc4[n+]3[O-])ccc21`, the TGI was > 100 µM.
Compound `O=[N+]([O-])/C(Cl)=C(/C(Cl)=C(Cl)Cl)N1CCCCC1` returned a TGI of 41.6 µM.
In turn, `COc1ccc2c(c1)-c1c(c3cc(OC)ccc3n1CCN(C)C)CC2` came in with a TGI of 28.2 µM.
Consider `NCCN(CCN(C(=O)Nc1ccccc1)c1ccccc1)C(=O)Nc1ccccc1`, for which the TGI was > 100 µM.
As to `O=C1c2cccnc2S(=O)(=O)N1c1ccc([N+](=O)[O-])cc1`, the TGI was > 100 µM.
The same measure, in the same setting: as for `CC1CCc2sc3nc4n(c(=O)c3c2C1)CC(C)S4` (configuration not stated), the figure is 52.3 µM; as for `N#Cc1nc(CCCN2C(=O)c3ccccc3C2=O)oc1N`, > 100 µM.

Another experiment has as its system PC-3 prostate. The experiment can be described thus: inhibition of tumour cell growth, NCI panel, 48 h.
`O=CN1CCN(C(=O)c2ccco2)C1=S`: the TGI stood at 23 µM.
Turning to `CC(=O)C1(O)CCC2(O)C3(O)CC=C4CC(O)CCC4(C)C3CC(OC(=O)c3ccc(O)cc3)C12C` (configuration not stated), the TGI was > 100 µM.
`Cn1c2c(c3ccccc31)CCN1C(=O)C34CCCC3CC21S4` (configuration not stated): the TGI is > 100 µM.
Regarding `Clc1ccc(OCc2nnc(COc3ccc(OCc4nnc(COc5ccc(Cl)cc5Cl)o4)c(Cl)c3)o2)c(Cl)c1`, the TGI was > 100 µM.
On to `O=C1/C(=C/c2ccncc2)C(n2cccc2)c2c(Br)sc(Br)c21` (configuration not stated), for which the TGI turned out to be 16.1 µM.
Same read-out and setting: the result for `COCC#C[C@@]1(O)CCCCC1CC(OC)OC` (some centres not stated) reads > 100 µM.
Still for that read-out and setting: as for `C=C1CC(COc2ccc3c(C)c(C)c(=O)oc3c2C)(c2ccccc2)OC1=O` (configuration not stated), the figure is 3.84 µM; as for `CC(=O)OCC(=O)O[C@@H]1[C@H]2[C@@H](OC(=O)c3ccccc3)[C@@H](C)C[C@]2(O)[C@H](OC(C)=O)[C@@]2(C)C[C@]1(OC(C)=O)C[C@H]1C(=O)C(C)(C)[C@@H](OC(C)=O)[C@@H]12`, > 25 µM; as for `O=C(Sc1c(-c2ccccc2)c(=O)n(-c2ccccc2)c(=S)n1-c1ccccc1)c1ccco1`, > 100 µM.
For `Cn1nc2c(c1N)Cc1c(nn(C)c1N)-c1ccccc1-2`, the TGI was > 100 µM.
`O=c1ccn(-c2ccccn2)c(=O)n1-c1ccccn1`: the TGI was > 100 µM.
Consider `O=C1NC(=S)NC(=O)C1C(c1ccc(Cl)cc1)C1C(=O)NC(=S)NC1=O`, for which the TGI is > 100 µM.
As to `COC(=O)C1=C(C(=O)OC)SC(=C2SC3=C(SC(=C4SCCS4)S3)S2)S1`, the TGI was > 100 µM.
For the compound `Cc1nnc2n1-c1ccccc1N(Cc1ccccc1)CC2`, the TGI is > 100 µM.
In turn, `CC(C)(C)c1cc(/C=C2/NC(=O)NC2=O)cc(C(C)(C)C)c1O` showed a TGI of 20.3 µM.
In turn, `COc1cccc(N2C(=O)CS(=O)(=O)C2c2cccc(Oc3ccccc3)c2)c1` (configuration not stated) showed a TGI of 85.8 µM.
On to `O=C(/C=C\Nc1ccccc1O)C(F)(F)F`, for which the TGI is > 100 µM.
For `CC1(C)OC[C@@H](C[C@H](O)COCc2ccccc2)O1`, the TGI is > 100 µM.
The same measure, in the same setting: as for `NC(N)=NS(=O)(=O)c1ccc(NC(=O)c2cccc3c(NNc4ccc(S(N)(=O)=O)cc4)c4ccccc4nc23)cc1`, the figure is > 100 µM.
Regarding `Nc1nncc2[nH]cnc12`, the TGI is > 100 µM.
As to `CN(C)CCNc1c([N+](=O)[O-])sc2ccc(Cl)cc12`, the TGI was > 100 µM.
On the same count and under the same terms, as for `CCOC(=O)Cn1nnc2cc(Nc3c(C)[n+]([O-])c4cc(F)c(OCC)cc4[n+]3[O-])ccc21`, the figure is > 100 µM.
`O=[N+]([O-])/C(Cl)=C(/C(Cl)=C(Cl)Cl)N1CCCCC1` came in with a TGI of 43.8 µM.
For `COc1ccc2c(c1)-c1c(c3cc(OC)ccc3n1CCN(C)C)CC2`, the TGI came to 25.9 µM.
On the same count and under the same terms, the result for `NCCN(CCN(C(=O)Nc1ccccc1)c1ccccc1)C(=O)Nc1ccccc1` reads 90.3 µM.
Take `O=C1c2cccnc2S(=O)(=O)N1c1ccc([N+](=O)[O-])cc1`: the TGI was > 100 µM.
Same read-out and setting: the result for `CC1CCc2sc3nc4n(c(=O)c3c2C1)CC(C)S4` (configuration not stated) reads 62.9 µM.
For the compound `N#Cc1nc(CCCN2C(=O)c3ccccc3C2=O)oc1N`, the TGI was > 100 µM.

The subject of a further experiment is RXF 393 renal. Nature of the experiment: inhibition of tumour cell growth, NCI panel, 48 h.
For the compound `O=CN1CCN(C(=O)c2ccco2)C1=S`, the TGI stood at 20.1 µM.
As for `Cn1c2c(c3ccccc31)CCN1C(=O)C34CCCC3CC21S4` (configuration not stated), the TGI was > 100 µM.
The compound `Clc1ccc(OCc2nnc(COc3ccc(OCc4nnc(COc5ccc(Cl)cc5Cl)o4)c(Cl)c3)o2)c(Cl)c1` gave a TGI of 59.6 µM.
With `O=C1/C(=C/c2ccncc2)C(n2cccc2)c2c(Br)sc(Br)c21` (configuration not stated), the TGI came out at 3.96 µM.
Turning to `COCC#C[C@@]1(O)CCCCC1CC(OC)OC` (some centres not stated), the TGI is > 100 µM.
In the case of `CC(=O)OCC(=O)O[C@@H]1[C@H]2[C@@H](OC(=O)c3ccccc3)[C@@H](C)C[C@]2(O)[C@H](OC(C)=O)[C@@]2(C)C[C@]1(OC(C)=O)C[C@H]1C(=O)C(C)(C)[C@@H](OC(C)=O)[C@@H]12`, the TGI was > 25 µM.
With `O=C(Sc1c(-c2ccccc2)c(=O)n(-c2ccccc2)c(=S)n1-c1ccccc1)c1ccco1`, the TGI is > 100 µM.
The same measure, in the same setting: the result for `Cn1nc2c(c1N)Cc1c(nn(C)c1N)-c1ccccc1-2` reads > 100 µM.
For `O=c1ccn(-c2ccccn2)c(=O)n1-c1ccccn1`, the TGI is > 100 µM.
Turning to `O=C1NC(=S)NC(=O)C1C(c1ccc(Cl)cc1)C1C(=O)NC(=S)NC1=O`, the TGI is > 100 µM.
Turning to `COC(=O)C1=C(C(=O)OC)SC(=C2SC3=C(SC(=C4SCCS4)S3)S2)S1`, the TGI was > 100 µM.
Turning to `Cc1nnc2n1-c1ccccc1N(Cc1ccccc1)CC2`, the TGI is > 100 µM.
Turning to `CC(C)(C)c1cc(/C=C2/NC(=O)NC2=O)cc(C(C)(C)C)c1O`, the TGI stood at 19.7 µM.
As for `COc1cccc(N2C(=O)CS(=O)(=O)C2c2cccc(Oc3ccccc3)c2)c1` (configuration not stated), the TGI is 71.1 µM.
Consider `O=C(/C=C\Nc1ccccc1O)C(F)(F)F`, for which the TGI is > 100 µM.
Consider `CC1(C)OC[C@@H](C[C@H](O)COCc2ccccc2)O1`, for which the TGI is > 100 µM.
For `NC(N)=NS(=O)(=O)c1ccc(NC(=O)c2cccc3c(NNc4ccc(S(N)(=O)=O)cc4)c4ccccc4nc23)cc1`, the TGI was > 100 µM.
With `Nc1nncc2[nH]cnc12`, the TGI is > 100 µM.
The compound `CN(C)CCNc1c([N+](=O)[O-])sc2ccc(Cl)cc12` registered a TGI of 82.8 µM.
For `CCOC(=O)Cn1nnc2cc(Nc3c(C)[n+]([O-])c4cc(F)c(OCC)cc4[n+]3[O-])ccc21`, the TGI was > 100 µM.
`O=[N+]([O-])/C(Cl)=C(/C(Cl)=C(Cl)Cl)N1CCCCC1` registered a TGI of 20.6 µM.
`COc1ccc2c(c1)-c1c(c3cc(OC)ccc3n1CCN(C)C)CC2`: the TGI stood at 28.2 µM.
In the case of `NCCN(CCN(C(=O)Nc1ccccc1)c1ccccc1)C(=O)Nc1ccccc1`, the TGI was 34.5 µM.
The compound `CC1CCc2sc3nc4n(c(=O)c3c2C1)CC(C)S4` (configuration not stated) yielded a TGI of 55.2 µM.
On the same count and under the same terms, as for `N#Cc1nc(CCCN2C(=O)c3ccccc3C2=O)oc1N`, the figure is > 100 µM.
